This note sets out measurements from US10745361B2, “Piperazine derivatives having multimodal activity against pain” (ESTEVE PHARMACEUTICALS, S.A., priority 2013, dated 2020).

The experiment deals with human σ1 receptor and human μ-opioid receptor. Nature of the experiment: Human σ1 receptor radioligand assay and human μ-opioid receptor radioligand assay (μ and σ1 dual binding). Also on record: key to μ and σ1 dual binding: +: Both Ki-μ and Ki-σ1>=500 nM; ++: One K, <500 nM while the other K, is >=500 nM; +++: Both Ki-μ and Ki-σ1<500 nM; ++++: Both Ki-μ and Ki-σ1<100 nM. To be noted: one class for both Ki: σ1 ([3H](+)-pentazocine, transfected HEK-293 membranes) and μ-opioid ([3H]-DAMGO, transfected CHO-K1 membranes). Here is the method: Human σ1 Receptor Radioligand Assay
To investigate binding properties of σ1 receptor ligands to human σ1 receptor, transfected HEK-293 membranes and [^3H](+)-pentazocine (Perkin Elmer, NET-1056), as the radioligand, were used. The assay was carried out with 7 μg of membrane suspension, 5 nM of [^3H](+)-pentazocine in either absence or presence of either buffer or 10 μM Haloperidol for total and non-specific binding, respectively. Binding buffer contained Tris-HCl 50 mM at pH 8. Plates were incubated at 37° C. for 120 minutes. After the incubation period, the reaction mix was then transferred to MultiScreen HTS, FC plates (Millipore), filtered and plates were washed 3 times with ice-cold 10 mM Tris-HCL (pH7.4). Filters were dried and counted at approximately 40% efficiency in a MicroBeta scintillation counter (Perkin-Elmer) using EcoScint liquid scintillation cocktail
Human μ-Opioid Receptor Radioligand Assay
To investigate binding properties of p-opioid receptor ligands to human p-opioid receptor, transfected CHO-K1 cell membranes and [^3H]-DAMGO (Perkin Elmer, ES-542-C), as the radioligand, were used. The assay was carried out with 20 μg of membrane suspension, 1 nM of [^3H]-DAMGO in either absence or presence of either buffer or 10 μM Naloxone for total and non-specific binding, respectively. Binding buffer contained Tris-HCl 50 mM, MgCl2 5 mM at pH 7.4. Plates were incubated at 27° C. for 60 minutes. After the incubation period, the reaction mix was then transferred to MultiScreen HTS, FC plates (Millipore), filtered and plates were washed 3 times with ice-cold 10 mM Tris-HCL (pH 7.4). Filters were dried and counted at approximately 40% efficiency in a MicroBeta scintillation counter (Perkin-Elmer) using
EcoScint liquid scintillation cocktail.
The following scale as been adopted for representing the binding to the σ1 receptor and the μ-opiod receptor expressed as Ki: • + Both Ki-μ and Ki-σ1>=500 nM • ++ One K, <500 nM while the other K, is >=500 nM • +++ Both Ki-μ and Ki-σ1<500 nM • ++++ Both Ki-μ and Ki-σ1<100 nM
Regarding `CC(C)S(=O)(=O)Nc1cccc(N2CCN(Cc3cn(-c4ccccc4)nn3)CC2)c1` [Example 1, N-(3-(4-((1-phenyl-1H-1,2,3-triazol-4-yl)methyl)piperazin-1-yl)phenyl)propane-2-sulfonamide], the Ki (usually a dissociation constant, usually derived from enzyme kinetics or from competition with a known ligand) is below 100 nM.
Take `CC(C)S(=O)(=O)Nc1cccc(N2CCN(Cc3cn(-c4cncc(Cl)c4)nn3)CC2)n1` [Example 2, N-(6-(4-((1-(5-chloropyridin-3-yl)-1H-1,2,3-triazol-4-yl)methyl)piperazin-1-yl)pyridin-2-yl)propane-2-sulfonamide]: the “μ and σ1 dual binding” value is reported as “++”.
`CS(=O)(=O)Nc1cccc(N2CCN(Cc3cn(Cc4ccccc4)nn3)CC2)c1` [Example 3, N-(3-(4-((1-benzyl-1H-1,2,3-triazol-4-yl)methyl)piperazin-1-yl)phenyl)methanesulfonamide]: the “μ and σ1 dual binding” value is listed as “++”.
With `CS(=O)(=O)Nc1cccc(N2CCN(Cc3cn(-c4ccccc4)nn3)CC2)c1` [Example 4, N-(3-(4-((1-phenyl-1H-1,2,3-triazol-4-yl)methyl)piperazin-1-yl)phenyl)methanesulfonamide], the Ki was below 500 nM.
In the case of `Oc1cccc(N2CCN(Cc3cn(-c4ccccc4)nn3)CC2)c1` [Example 5, 3-(4-((1-phenyl-1H-1,2,3-triazol-4-yl)methyl)piperazin-1-yl)phenol], the “μ and σ1 dual binding” value is on record as “++”.
In the case of `Oc1cccc(N2CCN(Cc3cn(Cc4ccccc4)nn3)CC2)c1` [Example 6, 3-(4-((1-benzyl-1H-1,2,3-triazol-4-yl)methyl)piperazin-1-yl)phenol], the “μ and σ1 dual binding” value is given as “++”.
For `Oc1cccc(N2CCN(Cc3cn(-c4ccccn4)nn3)CC2)c1` [Example 7, 3-(4-((1-(pyridin-2-yl)-1H-1,2,3-triazol-4-yl)methyl)piperazin-1-yl)phenol], the “μ and σ1 dual binding” value is “++”.
Turning to `CS(=O)(=O)Nc1cccc(N2CCN(Cc3cn(-c4ccc(C(F)(F)F)nc4)nn3)CC2)c1` [Example 8, N-(3-(4-((1-(6-(trifluoromethyl)pyridin-3-yl)-1H-1,2,3-triazol-4-yl)methyl)piperazin-1-yl)phenyl)methanesulfonamide], the Ki was at least 500 nM.
As to `CC(C)S(=O)(=O)Nc1cccc(N2CCN(Cc3cn(-c4ccccc4F)nn3)CC2)c1` [Example 9, N-(3-(4-((1-(2-fluorophenyl)-1H-1,2,3-triazol-4-yl)methyl)piperazin-1-yl)phenyl)propane-2-sulfonamide], the Ki is below 100 nM.
For `CCS(=O)(=O)Nc1cccc(N2CCN(Cc3cn(-c4ccccc4)nn3)CC2)c1` [Example 10, N-(3-(4-((1-phenyl-1H-1,2,3-triazol-4-yl)methyl)piperazin-1-yl)phenyl)ethanesulfonamide], the Ki is below 500 nM.
For `CS(=O)(=O)Nc1cccc(NC2CCN(Cc3cn(-c4ccccc4)nn3)C2)c1` (centres unmarked) [Example 11, N-(3-(1-((1-phenyl-1H-1,2,3-triazol-4-yl)methyl)pyrrolidin-3-ylamino)phenyl)methanesulfonamide], the Ki is below 500 nM.
The same measure, in the same setting: the figure for `CS(=O)(=O)Nc1cccc(NC2CN(Cc3cn(-c4ccccc4)nn3)C2)c1` [Example 12, N-(3-(1-((1-phenyl-1H-1,2,3-triazol-4-yl)methyl)azetidin-3-ylamino)phenyl)methanesulfonamide] is below 500 nM; for `CS(=O)(=O)Nc1cccc(N2CC3CN(Cc4cn(-c5ccccc5)nn4)CC3C2)c1` (centres unmarked) [Example 13, N-(3-(5-((1-phenyl-1H-1,2,3-triazol-4-yl)methyl)hexahydropyrrolo[3,4-c]pyrrol-2(1H)-yl)phenyl)methanesulfonamide] it is below 500 nM; for `CN(c1cccc(NS(C)(=O)=O)c1)C1CCN(Cc2cn(-c3ccccc3)nn2)C1` (centres unmarked) [Example 14, N-(3-(methyl(1-((1-phenyl-1H-1,2,3-triazol-4-yl)methyl)pyrrolidin-3-yl)amino)phenyl)methanesulfonamide] it is below 100 nM.
`CN(c1cccc(NS(C)(=O)=O)c1)C1CN(Cc2cn(-c3ccccc3)nn2)C1` [Example 15, N-(3-(methyl(1-((1-phenyl-1H-1,2,3-triazol-4-yl)methyl)azetidin-3-yl)amino)phenyl)methanesulfonamide]: the inhibition constant Ki is below 500 nM.
With `CC(C)S(=O)(=O)Nc1cccc(N2CCN(Cc3cn(Cc4ccccn4)nn3)CC2)c1` [Example 16, N-(3-(4-((1-(pyridin-2-ylmethyl)-1H-1,2,3-triazol-4-yl)methyl)piperazin-1-yl)phenyl)propane-2-sulfonamide], the “μ and σ1 dual binding” value was “++”.
In turn, `CC(C)S(=O)(=O)Nc1cccc(N2CCN(Cc3cn(-c4ccccn4)nn3)CC2)c1` [Example 17, N-(3-(4-((1-(pyridin-2-yl)-1H-1,2,3-triazol-4-yl)methyl)piperazin-1-yl)phenyl)propane-2-sulfonamide] displayed a Ki below 500 nM.
As for `O=S(=O)(Nc1cccc(N2CCN(Cc3cn(-c4ccccc4)nn3)CC2)c1)C(F)(F)F` [Example 18, 1,1,1-trifluoro-N-(3-(4-((1-phenyl-1H-1,2,3-triazol-4-yl)methyl)piperazin-1-yl)phenyl)methanesulfonamide], the Ki is at least 500 nM.
`CC(C)S(=O)(=O)Nc1cccc(N2CCN(Cc3cn(-c4ccc(F)cn4)nn3)CC2)c1` [Example 19, N-(3-(4-((1-(5-fluoropyridin-2-yl)-1H-1,2,3-triazol-4-yl)methyl)piperazin-1-yl)phenyl)propane-2-sulfonamide]: the “μ and σ1 dual binding” value was “++”.
Molecule `O=S(=O)(Nc1cccc(N2CCN(Cc3cn(-c4ccccc4)nn3)CC2)c1)C1CC1` [Example 20, N-(3-(4-((1-phenyl-1H-1,2,3-triazol-4-yl)methyl)piperazin-1-yl)phenyl)cyclopropanesulfonamide] came in with a Ki below 100 nM.
In the case of `CC(C)S(=O)(=O)Nc1cccc(N2CCN(Cc3cn(-c4ncccc4F)nn3)CC2)c1` [Example 21, N-(3-(4-((1-(3-fluoropyridin-2-yl)-1H-1,2,3-triazol-4-yl)methyl)piperazin-1-yl)phenyl)propane-2-sulfonamide], the “μ and σ1 dual binding” value is “++”.
The same measure, in the same setting: the entry for `CC(C)S(=O)(=O)Nc1cccc(N2CCN(Cc3cn(-c4cc(F)ccn4)nn3)CC2)c1` [Example 22, N-(3-(4-((1-(4-fluoropyridin-2-yl)-1H-1,2,3-triazol-4-yl)methyl)piperazin-1-yl)phenyl)propane-2-sulfonamide] is “++”; for `CS(=O)(=O)Nc1cccc(N2[C@@H]3CC[C@H]2CN(Cc2cn(-c4ccccc4)nn2)C3)c1` [Example 23, N-(3-((1R,5S)-3-((1-phenyl-1H-1,2,3-triazol-4-yl)methyl)-3,8-diazabicyclo[3.2.1]octan-8-yl)phenyl)methanesulfonamide] it is “++”.
Regarding `CC(C)S(=O)(=O)Nc1cccc(N2CCN(Cc3cnn(-c4ccccn4)n3)CC2)c1` [Example 24, N-(3-(4-((2-(pyridin-2-yl)-2H-1,2,3-triazol-4-yl)methyl)piperazin-1-yl)phenyl)propane-2-sulfonamide], the inhibition constant Ki was at least 500 nM.
The molecule `CS(=O)(=O)Nc1cccc(N2CCCN(Cc3cn(-c4ccccc4)nn3)CC2)c1` [Example 25, N-(3-(4-((1-phenyl-1H-1,2,3-triazol-4-yl)methyl)-1,4-diazepan-1-yl)phenyl)methanesulfonamide] gave a Ki below 500 nM.
As for `CC(C)S(=O)(=O)Nc1cccc(N(C)C2CCN(Cc3cn(-c4ccccc4)nn3)C2)c1` (centres unmarked) [Example 26, N-(3-(methyl(1-((1-phenyl-1H-1,2,3-triazol-4-yl)methyl)pyrrolidin-3-yl)amino)phenyl)propane-2-sulfonamide], the Ki is below 100 nM.
`CC(C)S(=O)(=O)Nc1cccc(N2CCN(Cc3cn(-c4cccc(F)c4)nn3)CC2)c1` [Example 27, N-(3-(4-((1-(3-fluorophenyl)-1H-1,2,3-triazol-4-yl)methyl)piperazin-1-yl)phenyl)propane-2-sulfonamide]: the Ki was below 100 nM.
For the molecule `CC(C)S(=O)(=O)Nc1cccc(N2CCN(Cc3cn(-c4ccc(F)cc4)nn3)CC2)c1` [Example 28, N-(3-(4-((1-(4-fluorophenyl)-1H-1,2,3-triazol-4-yl)methyl)piperazin-1-yl)phenyl)propane-2-sulfonamide], the Ki is below 500 nM.
As to `CC(C)S(=O)(=O)Nc1cccc(N2CCN(Cc3cn(-c4cccc(F)n4)nn3)CC2)c1` [Example 29, N-(3-(4-((1-(6-fluoropyridin-2-yl)-1H-1,2,3-triazol-4-yl)methyl)piperazin-1-yl)phenyl)propane-2-sulfonamide], the Ki is below 500 nM.
